The assay has as its target Cyclin-dependent kinase 2/G1/S-specific cyclin-E1 (Homo sapiens, UniProt P24941+P24864). The experiment in a line: TR-FRET Assay. Here is the method:
Compound Preparation. Dissslove the compounds into DMSO solution to make 10 mM DMSO stock. Serially dilute the stock solution from highest concentration down to lowest in DMSO to make the compound stock plate (100× stock plates). To make 5× compound intermediate plate, add 38 μL of assay buffer (50 mM HEPES, pH 7.5, 0.05 mg/mL BSA, 10 mM MgCl2, 1 mM EGTA, 0.01% Tween-20, 2 mM DTT) into each well of the V-bottom plate; then transfer 2 μL of the stock compound solution of each concentration from the compound stock plate (100× stock), and mix well. Enzyme reaction. Transfer 2 μL compound from 5× intermediate plate into assay plate, then add 4 μL/well 2.5× Enzyme mix to assay plate, incubation for 10 min at room temperature. For positive control wells, add 4 μL/well assay buffer instead of Enzyme mix. Then add 4 μL/well 2.5× Substrate mix to assay plate, and incubation at 25° C. for 30 min at room temperature. After reaction, 10 μL 2× Detection mix (final 15 mM EDTA, 1× LANCE Detection Buffer, 0.5 nM Detection antibody) was added and incubated for 1 h prior to detection with excitation and emission at 320 and 665 nm (Tecan Spark TR-FRET mode Tecan).
(In general: In TR-FRET formats the signal depends on donor and acceptor labels being close together.)

Usually IC50 stands for the concentration needed to halve the response being measured. A lower IC50 goes with greater potency. Regarding `COCc1cc(C(=O)Nc2cc([C@H]3CC[C@@H](OC(=O)N4CCC5(CCC5)C4)C3)[nH]n2)n(C)n1` [US20250195475, Example 6], the IC50 was determined as 0.8 nM.

The record behind these values is BindingDB's records for patent US20250195475 (Inventisbio, 2025).
